Data on one molecule can be found in PMC8112869, “Therapeutic inhibition of keratinocyte TRPV3 sensory channel by local anesthetic dyclonine” (eLife, 2021).

Common to all, as to type: cell-based
The target in one assay is T1, TRPV3 L655A (Mus musculus, UniProt Q8K424, L655A).
T1 construct: expressed in transfected cells; host or cells: HEK 293T
The experiment in a line: Whole-cell recording of TRPV3 mutant L655A in HEK 293T cells. Conditions: 2-APB (1 mM)-evoked, –60 mV, read-out: IC50 for inhibition of TRPV3 mutant. The source says:
(§1) The WT mouse TRPV3 (mTRPV3), human TRPV3 (hTRPV3), rat TRPV1, rat TRPV2, rat TRPM8, and mouse TRPA1 cDNAs were generously provided by Dr. Feng Qin (State University of New York at Buffalo, Buffalo, USA). The GFP-mTRPV3 WT and the mutants (mTRPV3-G573S and mTRPV3-G573C) in pcDNA4/TO vector were gifts from Dr. Michael X Zhu (The University of Texas Health Science Center at Houston, Houston, USA). The WT fTRPV3 was kindly provided by Dr. Makoto Tominaga (Department of Physiological Sciences, SOKENDAI, Okazaki, Japan). All mutations were made using the overlap-extension polymerase chain reaction method as previously described ([Tian et al., 2019]). The resulting mutations were then verified by DNA sequencing. […]
(§2) Conventional whole-cell and excised patch-clamp recording methods were used. […] For a subset of recordings, currents were amplified using an Axopatch 200B amplifier (Molecular Devices, Sunnyvale, CA) and recorded through a BNC-2090/MIO acquisition system (National Instruments, Austin, TX) using QStudio developed by Dr. Feng Qin at State University of New York at Buffalo. […] As determined by the conductance tests, the solution around a patch under study was fully controlled by the application of a flow rate of 100 μl/min or greater. […]

The target of the next assay is T2, TRPV3 I644W (Mus musculus, UniProt Q8K424, I644W).
T2 construct: expressed in transfected cells; host or cells: HEK 293T
T2 sequence (Q8K424 whole entry I644W): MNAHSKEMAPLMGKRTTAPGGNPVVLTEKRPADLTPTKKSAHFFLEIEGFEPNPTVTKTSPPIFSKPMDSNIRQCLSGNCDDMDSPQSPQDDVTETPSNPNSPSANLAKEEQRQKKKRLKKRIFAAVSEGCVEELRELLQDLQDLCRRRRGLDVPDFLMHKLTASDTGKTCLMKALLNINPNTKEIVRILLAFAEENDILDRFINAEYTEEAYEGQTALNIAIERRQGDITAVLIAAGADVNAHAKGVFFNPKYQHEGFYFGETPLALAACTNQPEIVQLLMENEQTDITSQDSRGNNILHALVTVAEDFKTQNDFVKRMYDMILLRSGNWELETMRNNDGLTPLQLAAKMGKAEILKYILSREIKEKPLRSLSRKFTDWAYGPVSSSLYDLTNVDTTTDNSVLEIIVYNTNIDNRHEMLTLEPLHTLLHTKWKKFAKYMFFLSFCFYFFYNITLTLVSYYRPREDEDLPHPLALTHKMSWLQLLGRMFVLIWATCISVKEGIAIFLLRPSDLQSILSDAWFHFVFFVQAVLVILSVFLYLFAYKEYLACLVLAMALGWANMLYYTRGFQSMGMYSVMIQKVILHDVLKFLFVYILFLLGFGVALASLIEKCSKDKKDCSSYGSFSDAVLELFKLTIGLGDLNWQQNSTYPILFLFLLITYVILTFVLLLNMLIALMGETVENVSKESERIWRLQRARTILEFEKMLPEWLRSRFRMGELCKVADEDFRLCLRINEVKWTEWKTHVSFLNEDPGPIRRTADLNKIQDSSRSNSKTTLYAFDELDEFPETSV
As to the kind of experiment: Whole-cell recording of TRPV3 mutant I644W in HEK 293T cells. The note with it: 2-APB (1 mM)-evoked, –60 mV, read-out: IC50 for inhibition of TRPV3 mutant.
From the text: as §1, §2

In the next assay the target is T3, TRPV3 (G573C) (Mus musculus, UniProt Q8K424, G573C).
T3 construct: expressed in transfected cells; host or cells: T-Rex 293
T3 sequence (Q8K424 whole entry G573C): as the sequence (Q8K424 whole entry I644W) above, with G573C, W644I counted along it
As to the kind of experiment: Whole-cell currents of TRPV3 (G573C) expressed in T-Rex 293 cells.
From the text: as §1, §2

T1 sequence (Q8K424 whole entry L655A): as the sequence (Q8K424 whole entry I644W) above, with W644I, L655A counted along it

`CCCCOc1ccc(C(=O)CCN2CCCCC2)cc1` [dyclonine]: the IC50 at TRPV3 L655A was 287 ± 10.4 µM; on TRPV3 I644W it was 26.1 ± 2.8 µM. Moreover, on TRPV3 (G573C) (10 μM dyclonine, –60 mV, leak subtracted with 20 μM RR), the “reduction of spontaneous activities” value is 71% ± 2%. The “300 μM 2-APB-evoked responses, of control level” value on TRPV3 (G573C) (presence of dyclonine) is given as 11% ± 1%.
